PMC2920492 (Journal of medicinal chemistry, 2010)
One block for each molecule: values may come before it.

Assays:
[1] = tested on: recombinant LSD1/CoRest complex; details: cited from earlier work
[2] = tested on: global H3K4me2; details: P19 cell line; cited from earlier work
[3] = biological target: T1, recombinant human LSD1 (Homo sapiens, UniProt O60341); format: biochemical; details: read-out: reduction of LSD1 activity (inhibition), 10 μM
[4] = tested on: global H3K4me2; details: HCT116 cells, 48 hr exposure, increasing concentrations; cited from earlier work
[5] = tested on: global H3K4me1; details: HCT116 cells, 48 hr exposure, increasing concentrations; cited from earlier work
[6] = tested on: global H3K9me2; details: HCT116 cells, 48 hr exposure, increasing concentrations; cited from earlier work
[7] = tested on: HCT116 human colon carcinoma; details: compound alone; cited from earlier work
[8] = biological target: T1, recombinant human LSD1; details: 10 μM; cited from earlier work
[9] = tested on: global H3K4me1; test: Global H3K4me1 levels by quantitative Western blot in Calu-6 cells; format: cell-based, human; details: 10 μM
[10] = tested on: global H3K4me2; test: Global H3K4me2 levels by quantitative Western blot in Calu-6 cells; format: cell-based, human; details: 10 μM
[11] = tested on: SFRP2; test: SFRP2 mRNA re-expression by qPCR in Calu-6 cells; format: cell-based, human; details: 10 μM, 24 h
[12] = tested on: GATA4; test: GATA4 mRNA re-expression by qPCR in Calu-6 cells; format: cell-based, human; details: 5 and 10 μM, 24 h

Compound: NNCCc1ccccc1 [phenelzine]
nucleosomal demethylation [1]: inactivate | global levels of H3K4me2 [2]: increase

Compound: N[C@@H]1C[C@H]1c1ccccc1 (racemic) [tranylcypromine]
global levels of H3K4me2 [2]: increase

inhibition at 10 µM [3]: 82.9%
Compound: Cl.N=C(NCCCNCCCCCCCNCCCNC(=N)NC(=N)NCCC(c1ccccc1)c1ccccc1)NC(=N)NCCC(c1ccccc1)c1ccccc1 [Compound 2d]
global H3K4me2 [4]: significant global increases | global H3K4me1 [5]: significant global increases | global H3K9me2 levels [6]: not affecting | effect on tumor cell growth [7]: little effect

Compound: C/N=C(\NC)NCCCNCCCNCCCN/C(=N/C)NC.Cl [Compound 1c]
%LSD1 activity remaining [8]: 14.1 (from [ref. 25]) % | global H3K4me2 [4]: significant global increases | global H3K4me1 [5]: significant global increases | global H3K9me2 levels [6]: not affecting

Compound: Cl.Cl.S=C(NCCCNCCCNCCCNC(=S)NCC(c1ccccc1)c1ccccc1)NCC(c1ccccc1)c1ccccc1 [Compound 27, 1,11-bis-{3-[1-(2,2-diphenylethyl)thioureado]}-4,8-diazaundecane]
global H3K4me1 level ([9]; 24 h): significant increases | global H3K4me2 level ([10]; 24 h): significant increases | increase in SFRP2 expression [11]: 4.8 fold

Compound: Cl.Cl.S=C(NCCCNCCCCCCCNCCCNC(=S)NCC(c1ccccc1)c1ccccc1)NCC(c1ccccc1)c1ccccc1 [Compound 25, 1,15-bis-{3-[1-(2,2-diphenylethyl)thioureado]}-4,12-diazapentadecane]
global H3K4me1 level ([9]; 24 h): significant increases | global H3K4me1 level ([9]; 48 h): most dramatic increases | global H3K4me2 level ([10]; 24 h): significant increases | global H3K4me2 level ([10]; 48 h): most dramatic increases | effect on GATA4 levels [12]: did not produce significant increases

Compound: Cl.Cl.S=C(NCCCNCCCCNCCCNC(=S)NCC(c1ccccc1)c1ccccc1)NCC(c1ccccc1)c1ccccc1 [Compound 26, 1,12-bis-{3-[1-(2,2-diphenylethyl)thioureado]}-4,9-diazadodecane]
global H3K4me1 level ([9]; 24 h): significant increase | global H3K4me1 level ([9]; 48 h): increase | global H3K4me2 level ([10]; 24 h): decreased | global H3K4me2 level ([10]; 48 h): reduction | effect on GATA4 levels [12]: did not produce significant increases
